Several values for one entry are separate records, joined by “and”; a condition that tells them apart may be missing. Identical values can stand only once.

This note sets out measurements from patent publication US8420646B2, “Tricyclic tetrahydroquinoline antibacterial agents” (PAH P&U LLC, priority 2002, dated 2013).

T1 sequence (P0AES4 whole entry, one chain of several): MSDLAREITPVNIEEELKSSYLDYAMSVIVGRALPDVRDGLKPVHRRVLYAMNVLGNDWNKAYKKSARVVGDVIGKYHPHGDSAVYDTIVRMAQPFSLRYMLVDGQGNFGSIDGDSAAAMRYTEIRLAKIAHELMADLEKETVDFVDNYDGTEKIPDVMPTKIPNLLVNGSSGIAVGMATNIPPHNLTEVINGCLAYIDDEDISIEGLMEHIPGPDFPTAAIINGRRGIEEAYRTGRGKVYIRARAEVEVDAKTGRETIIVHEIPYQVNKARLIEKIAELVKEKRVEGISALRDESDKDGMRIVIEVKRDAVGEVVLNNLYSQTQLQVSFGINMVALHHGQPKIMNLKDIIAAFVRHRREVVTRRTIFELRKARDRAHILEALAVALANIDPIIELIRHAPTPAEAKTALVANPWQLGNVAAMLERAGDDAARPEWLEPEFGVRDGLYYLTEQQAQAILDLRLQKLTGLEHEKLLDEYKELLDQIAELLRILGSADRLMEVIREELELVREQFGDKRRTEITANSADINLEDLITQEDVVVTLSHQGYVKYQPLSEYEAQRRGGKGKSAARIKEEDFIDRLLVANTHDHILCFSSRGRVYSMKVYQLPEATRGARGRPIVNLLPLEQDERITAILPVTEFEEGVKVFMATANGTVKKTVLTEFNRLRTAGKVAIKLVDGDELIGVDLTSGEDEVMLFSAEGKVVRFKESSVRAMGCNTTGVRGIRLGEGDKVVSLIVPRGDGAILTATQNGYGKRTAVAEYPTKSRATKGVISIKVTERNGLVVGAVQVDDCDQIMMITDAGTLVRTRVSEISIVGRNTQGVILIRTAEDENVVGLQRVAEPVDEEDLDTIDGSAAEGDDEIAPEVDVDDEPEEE

The assay addresses T1, E. coli DNA gyrase (Escherichia coli, UniProt P0AES4+P0AES6).
T1 construct: made in house; host or cells: strains overexpressing each subunit individually
The experiment in a line: In Vitro DNA Gyrase Assay (supercoiling of relaxed pBR322, EtBr-stained agarose gel). The assay is classed as biochemical. The conditions noted are these: Gyrase IC50 (μM), E. coli DNA gyrase holoenzyme A2B2; substrate relaxed pBR322; relaxed vs. supercoiled DNA on 0.8% agarose gel. The source says:
DNA gyrase is a bacterial topoisomerase that introduces negative supercoils into DNA. The DNA gyrase assay measures the degree of enzymatic activity by quantitating relative amounts of relaxed vs. supercoiled DNA on an EtBr-stained 0.8% agarose gel. The substrate is relaxed pBR322. The enzyme is E. coli DNA gyrase which is purified from strains overexpressing each of the subunits individually (there are two: A and B and the holoenzyme consists of the heterodimer A2B2). See for example, Hallett et al. Cloning of the DNA gyrase genes under tac promoter control: overproduction of the gyrase A and B proteins. Gene 93: 139-142 (1990); Simon et al. Biochemical complementation studies in vitro of gyrase subunits from different species. FEBS Lett 373:88-92 (1995); and O'Dea et al. Mutations in the B subunit of Escherichia coli DNA gyrase that affect ATP-dependent reactions. J. Biol Chem 1996 271:9723-9 (1996).
In the below chart, racemic mixtures are denoted with (±)- and enantiomerically enriched samples are denoted by (−)- or (+)-.
With `C[C@@H]1CN2c3ccc([N+](=O)[O-])cc3CC3(C(=O)NC(=O)NC3=O)[C@H]2[C@H](C)O1` (stereo in doubt) [Example 1], the IC50 is 11.8 µM and 6.1 µM. The result for `C[C@@H]1CN2c3ccc(C#N)cc3CC3(C(=O)NC(=O)NC3=O)[C@H]2[C@H](C)O1` [Example 6, 1,1′,2,3′4,4′,4a, 6′-Octrahydro-2,4′,6′-trioxospiro[[1,4]oxazino[4,3-a]quinoline-5(6H), 5′(2′H)-pyrimidine]-8-carbonitrile] reads 13.8 µM; that for `C[C@@H]1CN2c3ccccc3CC3(C(=O)NC(=O)NC3=O)[C@H]2[C@H](C)O1` (racemic) [Example 2, 1,2,4,4a-Tetrahydro-cis-2,4-dimethylspiro[[1,4]oxazino[4,3-a]quinoline-5(6H), 5′(2′H)-pyrimidine]-2′,4′,6′(1′H,3′H)-trione], 45.6 µM. The same measure for `COC(=O)c1ccc2c(c1)CC1(C(=O)NC(=O)NC1=O)[C@H]1[C@H](C)O[C@H](C)CN21` (relative stereo) [Example 43, rel-Methyl (2R,4S,4aS)1,1′-2,3′,4,4a,6′-Octahydro-2,4-dimethyl-2′,4′,6′-trioxospiro[[1,4]oxazino[4,3-a]quinoline-5(6H),5′(2′H)-pyrimidine]-8-carboxylate]: 24 µM; for `C[C@@H]1CN2c3ccc([N+](=O)[O-])cc3CC3(C(=O)NC(=O)NC3=O)[C@@H]2[C@@H](C)O1` (racemic) [Example 1]: 19 µM. Consider `C[C@@H]1CN2c3ccc(F)cc3CC3(C(=O)NC(=O)NC3=O)[C@H]2[C@H](C)O1` (racemic) [Example 4, 8-Fluoro-1,2,4,4a-tetrahydro-cis-2,4-dimethylspiro[[1,4]oxazino[4,3-a]quinoline-5(6H), 5′(2′H)-pyrimidine]-2′,4′,6′(1′H,3′H)-trione], for which 70.2 µM corresponded to half-maximal inhibition (IC50). The result for `C[C@@H]1OCCN2c3ccc([N+](=O)[O-])cc3CC3(C(=O)NC(=O)NC3=O)[C@@H]12` (stereo in doubt) [Example 25] reads 18.2 µM and 32 µM; that for `CC(=O)c1ccc2c(c1)CC1(C(=O)NC(=O)NC1=O)[C@H]1[C@H](C)O[C@H](C)CN21` (racemic) [Example 18, 8-Acetyl-1,2,4,4a-tetrahydro-2,4-dimethylspiro[[1,4]oxazino[4,3-a]quinoline-5(6H),5′(2H)-pyrimidine)-2′,4′,6′(1′H,3′H)-trione], 8.4 µM.
